In ChEMBL document CHEMBL1201862, “PubChem BioAssay data set” (2004):
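Cultured in 96-well plates, cells were exposed to test compound for 48 hours across five concentrations. GI50: concentration for 50% inhibition of growth.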 Activity calls are given as the source filed them. Cut-off read from the data, not from the text of the source: active = GI50 up to about 1.1 µM and inactive = higher.

Tests used:
Experiment in all cases: NCI anticancer screen, dose series, 48 h
[1] = tested on: RXF 631
[2] = tested on: Hs-578T
[3] = tested on: T47D
[4] = tested on: PC-3
[5] = tested on: DU-145
[6] = tested on: MDA-MB-231
[7] = tested on: MDA-MB-435
[8] = tested on: MDA-N
[9] = tested on: 786-0

Measured: GI50

O=C(CC1Sc2ccccc2NC1=O)Nc1ccccc1[N+](=O)[O-] (stereo unspecified)
inactive: [1] > 100 µM

CCCCSCCC(N)P(=O)(O)O (stereo unspecified)
inactive: [2] > 100 µM | [3] > 100 µM | [4] > 100 µM | [5] > 100 µM | [6] > 100 µM | [7] > 100 µM | [8] > 100 µM

COc1cccc(CC2Cc3ccccc3CC(=O)N2)c1 (stereo unspecified)
inactive: [2] 21.4 µM | [3] 41.5 µM | [4] 31 µM | [5] > 100 µM | [6] 10 µM | [7] 32.7 µM | [8] 48.1 µM

c1ccc2c(NCCCCCCCCNc3cccc4ccccc34)cccc2c1
inactive: [1] 18.9 µM | [9] 23.4 µM

O=S(=O)(c1ccc(I)cc1)N(c1ccccc1)S(=O)(=O)C(F)(F)C(F)(F)C(F)(F)C(F)(F)F
inactive: [2] 30.2 µM | [3] 35.5 µM | [4] 38.7 µM | [5] 46.7 µM | [6] 23 µM | [9] 45.7 µM | [7] > 100 µM | [8] 60.1 µM

COc1cccc(NC(=O)CC(=O)NN2C(=O)/C(=C/c3ccc(N(CCC#N)CCC#N)cc3)N=C2c2cc([N+](=O)[O-])ccc2Cl)c1
inactive: [1] > 100 µM

CC(=O)Oc1ccccc1[C@H]1CC(=O)C[C@H](c2ccccc2OC(C)=O)C12C(=O)c1ccccc1C2=O
inactive: [2] 27.7 µM | [3] 40.2 µM | [4] 17.5 µM | [5] 35.4 µM | [6] 27.1 µM | [7] 14.7 µM | [8] 16 µM

COc1ccc(CCn2nccc2C)cc1
inactive: [2] > 100 µM | [3] 74.1 µM | [4] > 100 µM | [5] > 100 µM | [6] > 100 µM | [7] > 100 µM | [8] > 100 µM

COc1ccccc1NC(=O)C(=O)C(C(=O)c1ccccc1F)C1OC(=O)c2ccccc21 (stereo unspecified)
inactive: [1] 18.7 µM
